Data reported in the supplement of paper PMC4862054.

These compounds were tested on MDA-MB-231 (assay: normalised response (% of control), CellTox Green; higher = less cell death (100 = DMSO, 0 = benzethonium chloride kill control)). Details: incubation time: 72 h.
Method in brief: (§1)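 A 20 µl suspension of breast cancer cells was seeded into each well of 384-well plates containing compound at 5 concentrations in 10-fold steps over a compound-specific 10,000-fold range. After 72 h incubation, CellTox Green fluorescence (485/520 nm) was read first, and CellTiter-Glo luminescence was read after 10 min at room temperature. Each plate was normalised against 0.1 % DMSO (100) and a positive kill control (0), and each value is the normalised signal at one concentration.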

Row | Structure (SMILES) | normalised response [%]
1 | CS(=O)(=O)c1ccc(C2=C(c3ccccc3)C(=O)OC2)cc1 [Rofecoxib] (10000 nM) | 108
2 | CCC(C)(C)C(=O)O[C@H]1C[C@@H](C)C=C2C=C[C@H](C)[C@H](CC[C@@H]3C[C@@H](O)CC(=O)O3)[C@H]21 [Simvastatin] (10000 nM) | -117
3 | CC(C)Cn1cnc2c(N)nc3ccccc3c21 [Imiquimod] (2500 nM) | 96.5
4 | N#CCNC(=O)c1ccc(-c2ccnc(Nc3ccc(N4CCOCC4)cc3)n2)cc1 [Momelotinib] (10000 nM) | 19
5 | CC(=O)Nc1ccc(C(=O)Nc2ccccc2N)cc1 [Tacedinaline] (1000 nM) | 111
6 | O=C(O)c1ccc(-c2c[nH]c3ncc(-c4ccccc4)cc23)cc1C1CCCC1 (10000 nM) | 92.8
7 | COc1cc2ncnc(Nc3ccc(F)c(Cl)c3)c2cc1NC(=O)/C=C/CN1CCCCC1 [Dacomitinib] (1000 nM) | 103

Each compound was assayed on MDA-MB-436 in the same assay as above. Details: incubation time: 72 h.
Method in brief: as §1

Row | Structure (SMILES) | normalised response [%]
8 | CS(=O)(=O)c1ccc(C2=C(c3ccccc3)C(=O)OC2)cc1 [Rofecoxib] (10000 nM) | 77.7
9 | CCC(C)(C)C(=O)O[C@H]1C[C@@H](C)C=C2C=C[C@H](C)[C@H](CC[C@@H]3C[C@@H](O)CC(=O)O3)[C@H]21 [Simvastatin] (10000 nM) | 51.8
10 | CC(C)Cn1cnc2c(N)nc3ccccc3c21 [Imiquimod] (2500 nM) | 102
11 | N#CCNC(=O)c1ccc(-c2ccnc(Nc3ccc(N4CCOCC4)cc3)n2)cc1 [Momelotinib] (10000 nM) | 78
12 | CC(=O)Nc1ccc(C(=O)Nc2ccccc2N)cc1 [Tacedinaline] (1000 nM) | 107
13 | O=C(O)c1ccc(-c2c[nH]c3ncc(-c4ccccc4)cc23)cc1C1CCCC1 (10000 nM) | 57.9

Each compound was assayed on MDA-MB-453 in the same assay as above. Details: incubation time: 72 h.
Method in brief: as §1

Row | Structure (SMILES) | normalised response [%]
14 | CS(=O)(=O)c1ccc(C2=C(c3ccccc3)C(=O)OC2)cc1 [Rofecoxib] (10000 nM) | 66.6
15 | CCC(C)(C)C(=O)O[C@H]1C[C@@H](C)C=C2C=C[C@H](C)[C@H](CC[C@@H]3C[C@@H](O)CC(=O)O3)[C@H]21 [Simvastatin] (10000 nM) | 104
16 | CC(C)Cn1cnc2c(N)nc3ccccc3c21 [Imiquimod] (2500 nM) | 93.9
17 | N#CCNC(=O)c1ccc(-c2ccnc(Nc3ccc(N4CCOCC4)cc3)n2)cc1 [Momelotinib] (10000 nM) | 70.6
18 | CC(=O)Nc1ccc(C(=O)Nc2ccccc2N)cc1 [Tacedinaline] (1000 nM) | 98.2
19 | O=C(O)c1ccc(-c2c[nH]c3ncc(-c4ccccc4)cc23)cc1C1CCCC1 (10000 nM) | 102
20 | COc1cc2ncnc(Nc3ccc(F)c(Cl)c3)c2cc1NC(=O)/C=C/CN1CCCCC1 [Dacomitinib] (1000 nM) | 96.3

What follows are compounds tested on DU-4475 in the same assay as above. Details: incubation time: 72 h.
Method in brief: as §1

Row | Structure (SMILES) | normalised response [%]
21 | CS(=O)(=O)c1ccc(C2=C(c3ccccc3)C(=O)OC2)cc1 [Rofecoxib] (10000 nM) | 101
22 | CCC(C)(C)C(=O)O[C@H]1C[C@@H](C)C=C2C=C[C@H](C)[C@H](CC[C@@H]3C[C@@H](O)CC(=O)O3)[C@H]21 [Simvastatin] (10000 nM) | 99
23 | CC(C)Cn1cnc2c(N)nc3ccccc3c21 [Imiquimod] (2500 nM) | 99.3
24 | N#CCNC(=O)c1ccc(-c2ccnc(Nc3ccc(N4CCOCC4)cc3)n2)cc1 [Momelotinib] (10000 nM) | 95.5
25 | CC(=O)Nc1ccc(C(=O)Nc2ccccc2N)cc1 [Tacedinaline] (1000 nM) | 99
26 | O=C(O)c1ccc(-c2c[nH]c3ncc(-c4ccccc4)cc23)cc1C1CCCC1 (10000 nM) | 97.5
27 | COc1cc2ncnc(Nc3ccc(F)c(Cl)c3)c2cc1NC(=O)/C=C/CN1CCCCC1 [Dacomitinib] (1000 nM) | 99.1

These compounds were tested on MCF-10A in the same assay as above. Details: incubation time: 72 h.
Method in brief: as §1

Row | Structure (SMILES) | normalised response [%]
28 | CS(=O)(=O)c1ccc(C2=C(c3ccccc3)C(=O)OC2)cc1 [Rofecoxib] (10000 nM) | 102
29 | CCC(C)(C)C(=O)O[C@H]1C[C@@H](C)C=C2C=C[C@H](C)[C@H](CC[C@@H]3C[C@@H](O)CC(=O)O3)[C@H]21 [Simvastatin] (10000 nM) | 23.2
30 | CC(C)Cn1cnc2c(N)nc3ccccc3c21 [Imiquimod] (2500 nM) | 88.2
31 | N#CCNC(=O)c1ccc(-c2ccnc(Nc3ccc(N4CCOCC4)cc3)n2)cc1 [Momelotinib] (10000 nM) | 90.5
32 | CC(=O)Nc1ccc(C(=O)Nc2ccccc2N)cc1 [Tacedinaline] (1000 nM) | 77.3
33 | O=C(O)c1ccc(-c2c[nH]c3ncc(-c4ccccc4)cc23)cc1C1CCCC1 (10000 nM) | 83.6
34 | COc1cc2ncnc(Nc3ccc(F)c(Cl)c3)c2cc1NC(=O)/C=C/CN1CCCCC1 [Dacomitinib] (1000 nM) | 96.8

Each compound was assayed on CAL-85-1 in the same assay as above. Details: incubation time: 72 h.
Method in brief: as §1

Row | Structure (SMILES) | normalised response [%]
35 | CS(=O)(=O)c1ccc(C2=C(c3ccccc3)C(=O)OC2)cc1 [Rofecoxib] (10000 nM) | 84.6
36 | CCC(C)(C)C(=O)O[C@H]1C[C@@H](C)C=C2C=C[C@H](C)[C@H](CC[C@@H]3C[C@@H](O)CC(=O)O3)[C@H]21 [Simvastatin] (10000 nM) | 84.3
37 | CC(C)Cn1cnc2c(N)nc3ccccc3c21 [Imiquimod] (2500 nM) | 83.7
38 | N#CCNC(=O)c1ccc(-c2ccnc(Nc3ccc(N4CCOCC4)cc3)n2)cc1 [Momelotinib] (10000 nM) | 54.6
39 | CC(=O)Nc1ccc(C(=O)Nc2ccccc2N)cc1 [Tacedinaline] (1000 nM) | 92.3
40 | O=C(O)c1ccc(-c2c[nH]c3ncc(-c4ccccc4)cc23)cc1C1CCCC1 (10000 nM) | 119
41 | COc1cc2ncnc(Nc3ccc(F)c(Cl)c3)c2cc1NC(=O)/C=C/CN1CCCCC1 [Dacomitinib] (1000 nM) | 38.7

These compounds were tested on BT-474 in the same assay as above. Details: incubation time: 72 h.
Method in brief: as §1

Row | Structure (SMILES) | normalised response [%]
42 | CCC(C)(C)C(=O)O[C@H]1C[C@@H](C)C=C2C=C[C@H](C)[C@H](CC[C@@H]3C[C@@H](O)CC(=O)O3)[C@H]21 [Simvastatin] (10000 nM) | 99.9
43 | CC(C)Cn1cnc2c(N)nc3ccccc3c21 [Imiquimod] (2500 nM) | 101
44 | N#CCNC(=O)c1ccc(-c2ccnc(Nc3ccc(N4CCOCC4)cc3)n2)cc1 [Momelotinib] (10000 nM) | 101
45 | CC(=O)Nc1ccc(C(=O)Nc2ccccc2N)cc1 [Tacedinaline] (1000 nM) | 97.7
46 | O=C(O)c1ccc(-c2c[nH]c3ncc(-c4ccccc4)cc23)cc1C1CCCC1 (10000 nM) | 95.4

These compounds were tested on MDA-MB-468 in the same assay as above. Details: incubation time: 72 h.
Method in brief: as §1

Row | Structure (SMILES) | normalised response [%]
47 | N#CCNC(=O)c1ccc(-c2ccnc(Nc3ccc(N4CCOCC4)cc3)n2)cc1 [Momelotinib] (10000 nM) | 22
48 | CC(=O)Nc1ccc(C(=O)Nc2ccccc2N)cc1 [Tacedinaline] (1000 nM) | 58.9
49 | O=C(O)c1ccc(-c2c[nH]c3ncc(-c4ccccc4)cc23)cc1C1CCCC1 (10000 nM) | 90.1
50 | COc1cc2ncnc(Nc3ccc(F)c(Cl)c3)c2cc1NC(=O)/C=C/CN1CCCCC1 [Dacomitinib] (1000 nM) | 121

What follows are compounds tested on HCC1599 in the same assay as above. Details: incubation time: 72 h.
Method in brief: as §1

Row | Structure (SMILES) | normalised response [%]
51 | CS(=O)(=O)c1ccc(C2=C(c3ccccc3)C(=O)OC2)cc1 [Rofecoxib] (10000 nM) | 97.2
52 | CC(C)Cn1cnc2c(N)nc3ccccc3c21 [Imiquimod] (2500 nM) | 101
53 | N#CCNC(=O)c1ccc(-c2ccnc(Nc3ccc(N4CCOCC4)cc3)n2)cc1 [Momelotinib] (10000 nM) | 90
54 | CC(=O)Nc1ccc(C(=O)Nc2ccccc2N)cc1 [Tacedinaline] (1000 nM) | 98.2
55 | O=C(O)c1ccc(-c2c[nH]c3ncc(-c4ccccc4)cc23)cc1C1CCCC1 (10000 nM) | 94
56 | COc1cc2ncnc(Nc3ccc(F)c(Cl)c3)c2cc1NC(=O)/C=C/CN1CCCCC1 [Dacomitinib] (1000 nM) | 99.1

What follows are compounds tested on HDQ-P1 in the same assay as above. Details: incubation time: 72 h.
Method in brief: as §1

Row | Structure (SMILES) | normalised response [%]
57 | CS(=O)(=O)c1ccc(C2=C(c3ccccc3)C(=O)OC2)cc1 [Rofecoxib] (10000 nM) | 112
58 | CCC(C)(C)C(=O)O[C@H]1C[C@@H](C)C=C2C=C[C@H](C)[C@H](CC[C@@H]3C[C@@H](O)CC(=O)O3)[C@H]21 [Simvastatin] (10000 nM) | 82.2
59 | N#CCNC(=O)c1ccc(-c2ccnc(Nc3ccc(N4CCOCC4)cc3)n2)cc1 [Momelotinib] (10000 nM) | 100
60 | CC(=O)Nc1ccc(C(=O)Nc2ccccc2N)cc1 [Tacedinaline] (1000 nM) | 104
61 | O=C(O)c1ccc(-c2c[nH]c3ncc(-c4ccccc4)cc23)cc1C1CCCC1 (10000 nM) | 91
